Consider six compounds from article PMC11507974, “Phytochemical Analysis, Antioxidant Activity and Bioassay-Guided Isolation of Acetylcholinesterase and Butyrylcholinesterase Inhibitors from Horsfieldia polyspherula Bark (Myristicaceae)” (Tropical Life Sciences Research, 2024).

Test [1] can be described thus: DPPH radical scavenging. The note with it: 15 min incubation, 517 nm. The procedure:
The free radical scavenging activity of the samples was determined using 1,1-diphenyl-2 picrylhydrazyl (DPPH) assay as described with minor modification ([Chua et al. 2013]). The DPPH solution was prepared by dissolving 3.0 mg of DPPH in 150 mL of methanol to afford 20 μg/mL. A 750 μL of the sample’s solution at different concentrations, ranging from 1.25 mg/mL to 40 mg/mL was added to 1,500 μL of DPPH solution. The absorbance was recorded at 517 nm using Shimadzu UV-2600 UV-Vis spectrophotometer after 15 min of incubation at room temperature. Ascorbic acid was used as the positive control, while methanol was used as negative control for scanning the background. The ability to scavenge the DPPH was calculated using Equation 2:
(2) DPPH radical scavenging activity (%)=Abs control-Abs sample/Abs control×100
where Abs control is the absorbance of DPPH while Abs sample is the absorbance of the sample. […] All experiments were performed in triplicates.

Test [2] deals with T1, AChE from Electrophorus electricus (electric eel) Type V-S (Electrophorus electricus, UniProt O42275).
T1 construct: purified AChE from Electrophorus electricus (electric eel) Type V-S (C2888-1K); purchased Sigma Aldrich, Germany C2888-1K
T1 sequence (O42275 24-633): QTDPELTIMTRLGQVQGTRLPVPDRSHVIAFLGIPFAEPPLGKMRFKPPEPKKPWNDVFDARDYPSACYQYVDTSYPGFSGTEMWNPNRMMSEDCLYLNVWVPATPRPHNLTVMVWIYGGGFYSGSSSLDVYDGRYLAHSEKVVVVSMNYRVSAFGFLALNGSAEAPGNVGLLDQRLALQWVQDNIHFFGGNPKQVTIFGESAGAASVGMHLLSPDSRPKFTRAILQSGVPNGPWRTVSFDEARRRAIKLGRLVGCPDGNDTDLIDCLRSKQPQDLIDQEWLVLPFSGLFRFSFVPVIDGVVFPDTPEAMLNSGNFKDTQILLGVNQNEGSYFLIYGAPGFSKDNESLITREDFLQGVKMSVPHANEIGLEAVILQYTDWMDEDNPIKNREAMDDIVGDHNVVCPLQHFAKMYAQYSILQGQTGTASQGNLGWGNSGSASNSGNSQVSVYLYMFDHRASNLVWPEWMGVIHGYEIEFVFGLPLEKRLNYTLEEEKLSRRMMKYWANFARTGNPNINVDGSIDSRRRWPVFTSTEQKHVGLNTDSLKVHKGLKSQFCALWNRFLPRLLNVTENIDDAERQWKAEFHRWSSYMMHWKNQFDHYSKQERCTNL
In words: biochemical. The note with it: for SI (selectivity index for AChE): IC50 (BuChE)/ IC50 (AChE). In kind it is biochemical. The procedure:
(§1) To assess the inhibitory activity of H. polyspherula extract, fractions and isolated compounds towards AChE and BuChE, Ellman’s spectrophotometric method was followed ([Ellman et al. 1961]) using purified AChE from Electrophorus electricus (electric eel) Type V-S (C2888-1K), and BuChE from equine serum lyophilized powder (C7512-1.2KU) all from Sigma Aldrich, Germany. The reaction took place in a final volume of 200 μL of a (140 μL to 160 μL) 100 mM phosphate-buffered solution at pH 7.5 for AChE and 8.0 for BuChE, containing (20 μL) 0.2 U of AChE or 0.1 U of BuChE. Inhibition curves were made by pre-incubating this mixture with six concentrations of each sample (20 μL) for 15 min. A sample with no compound (blank) was present to determine the 100% of enzyme activity. After the pre-incubation period, ten microlitre (10 μL) of 10 mM of 5,5′-dithiobis-2-nitrobenzoic acid (DTNB, D8130 Sigma Aldrich, Germany) was added prior to 14 mM (10 μL) acetylthiocholine iodide (A5751) or 14 Mm butyrylthiocholine iodide (B3253-5G) source from Sigma Aldrich, Germany) were added, DTNB produces yellow anion 5-thio-2-nitrobenzoic acid along with the enzymatic degradation of ATChI or BuTChI. Changes in absorbance were detected at 412 nm in a 96 well spectrophotometric microplate reader (Bostch Biotek) after 30 min. […] Data are analysed using excel, graph pad prism 9.0.0 and expressed as means ± SD of at least three different experiments in triplicate.
(§2) (3) % inhibition=[…]/Abs (blank)×100

For test [3], the target named is T2, BuChE from equine serum (Equus caballus, UniProt P81908).
T2 construct: BuChE from equine serum lyophilized powder (C7512-1.2KU); purchased Sigma Aldrich, Germany C7512-1.2KU; host or cells: equine serum
T2 sequence (P81908 whole entry): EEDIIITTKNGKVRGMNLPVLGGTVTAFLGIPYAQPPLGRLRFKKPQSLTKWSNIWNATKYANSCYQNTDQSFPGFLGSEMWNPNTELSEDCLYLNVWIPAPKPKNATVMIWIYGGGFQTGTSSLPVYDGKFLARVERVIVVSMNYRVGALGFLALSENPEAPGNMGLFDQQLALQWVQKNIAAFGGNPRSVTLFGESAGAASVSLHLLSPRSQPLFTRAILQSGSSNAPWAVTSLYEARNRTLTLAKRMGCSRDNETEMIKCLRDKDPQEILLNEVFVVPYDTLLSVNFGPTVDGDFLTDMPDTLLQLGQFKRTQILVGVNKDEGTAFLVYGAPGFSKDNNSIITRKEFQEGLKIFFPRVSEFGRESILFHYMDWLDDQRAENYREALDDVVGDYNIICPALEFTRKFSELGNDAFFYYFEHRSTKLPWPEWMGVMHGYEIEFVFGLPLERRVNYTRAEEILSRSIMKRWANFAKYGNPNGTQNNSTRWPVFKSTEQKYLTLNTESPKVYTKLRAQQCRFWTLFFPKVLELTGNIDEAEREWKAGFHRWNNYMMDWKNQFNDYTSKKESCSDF
In words: biochemical. In kind it is biochemical. The note with it: for SI (selectivity index for BuChE): IC50 (AChE)/ IC50 (BuChE). The protocol: as §1, §2

The mark [4] stands for this setting: IC50 AChE, pure compounds (μM for the pure compound).
Where [5] appears, read: IC50 BuChE, pure compounds (μM for the pure compound).
Where [6] appears, read: pure compounds (μM for the pure compound).

Like-named read-outs stand apart in the source and are kept apart here.

Consider `O=C(O)c1ccc(O)c(O)c1` [Compound 3, 3,4-dihydroxybenzoic acid], for which the “IC50 of DPPH free radical scavenging activity” value in test [1] turned out to be 6.56 ± 0.02 µg/mL. Further, in test [2], the “SI (selectivity index for AChE)” value was determined as 0.71. The values for the IC50 in test [2] (setting [4]) and in test [3] (setting [5]) were 327 ± 6.83 µM and 232 ± 8.37 µM, respectively. Moreover, the “SI (selectivity index for BuChE)” value in test [3] came to 1.41.

For the compound `CNC(=O)Oc1ccc2c(c1)[C@]1(C)CCN(C)[C@@H]1N2C` [Eserine, reference compound], the “% inhibition BuChE” value in test [3] (control, tested at 0.2 μM) came out at 44.45 ± 0.23%.

Consider `O=C(O)CCCCCCCCCCCCCCCc1ccccc1` [Compound 1, 16-phenylhexadecanoic acid], for which the “SI (selectivity index for AChE)” value in test [2] is listed as 0.88. Also, the IC50 in test [2] (pure compounds (μM for the pure compound), read-out: IC50 AChE) turned out to be 46.8 ± 2.44 µM; in test [3] (pure compounds (μM for the pure compound), read-out: IC50 BuChE) it was 41 ± 1.99 µM. Moreover, the “SI (selectivity index for BuChE)” value in test [3] turned out to be 1.14.

Regarding `O=C1O[C@H]([C@@H](O)CO)C(O)=C1O` [Ascorbic acid, reference compound], the “IC50 of DPPH free radical scavenging activity” value in test [1] is 4.21 ± 0.13 µg/mL.

Regarding `CCCCCCCCCCCc1ccccc1` [Compound 2, Undecylbenzene], in test [2], the “SI (selectivity index for AChE)” value came out at 0.95. Further, the IC50 in test [2] (setting [4]) was determined as 246.1 ± 1.4 µM; in test [3] (setting [5]), 234 ± 4.78 µM. In addition, the “SI (selectivity index for BuChE)” value in test [3] amounted to 1.05.

For the compound `CCCCCCCCCCCCCC(=O)OCC(COC(=O)CCCCCCCCCCCCC)OC(=O)CCCCCCCCCCCCC` [Compound 9, Trimyristin], the “IC50 AChE” value in test [2] (setting [6]) is recorded as “no inhibitory activities”. The “IC50 BuChE” value in test [3] (setting [6]) is on record as “no inhibitory activities”.
